Measurements reported in the NIST ThermoML archive (doi:10.1016/j.jct.2013.09.028).
Numbers after ± are expanded uncertainties.

How the values were obtained:
[1] = refractive index (Na D-line) (dimensionless); details: 101.33 kPa, Liquid, Standard Abbe refractometry
[2] = 101.33 kPa, Liquid; for viscosity: Capillary tube (Ostwald / Ubbelohde) method; for speed of sound: Sing-around technique in a fixed-path interferometer; for mass density: Vibrating tube method

CCCCCC[n+]1cc(C)cc(C)c1CCCCC.O=S(=O)([N-]S(=O)(=O)C(F)(F)F)C(F)(F)F
Details	mass density, [2] [kg/m3]	refractive index, [1]	speed of sound, [2] [m/s]	viscosity, [2] [mPa·s]
298.15 K	1253.47 ± 0.44	1.46074 ± 0.00037	1291 ± 2	278 ± 10
303.15 K	1249.29 ± 0.44	1.4591 ± 0.00037	1277 ± 2	204 ± 7
308.15 K	1245.09 ± 0.44	1.45746 ± 0.00037	1264 ± 2	151 ± 4
313.15 K	1240.9 ± 0.43	1.45583 ± 0.00037	1251 ± 2	115 ± 3
318.15 K	1236.71 ± 0.43	1.45417 ± 0.00037	1238 ± 2	88.5 ± 2.2
323.15 K	1232.53 ± 0.42	1.45255 ± 0.00037	1225 ± 2	69.6 ± 1.6
328.15 K	1228.37 ± 0.42	1.45093 ± 0.00037	1213 ± 2	55.7 ± 1.3
333.15 K	1224.22 ± 0.42	1.4493 ± 0.00037	1201 ± 2	45.2 ± 1
338.15 K	1220.07 ± 0.41	1.44769 ± 0.00037	1188 ± 2	37.1 ± 0.8
343.15 K	1215.94 ± 0.41	1.44607 ± 0.00037	1176 ± 2	30.9 ± 0.7

CCCCCC[n+]1cc(C)cc(C)c1C.O=S(=O)([N-]S(=O)(=O)C(F)(F)F)C(F)(F)F
Details	mass density, [2] [kg/m3]	refractive index, [1]	speed of sound, [2] [m/s]	viscosity, [2] [mPa·s]
298.15 K	1336.18 ± 0.52	1.46466 ± 0.00037	1288 ± 2	174 ± 5
303.15 K	1331.83 ± 0.51	1.46311 ± 0.00037	1276 ± 2	129 ± 4
308.15 K	1327.48 ± 0.51	1.4615 ± 0.00037	1264 ± 2	98.2 ± 2.5
313.15 K	1323.15 ± 0.51	1.4599 ± 0.00037	1252 ± 2	76.2 ± 1.8
318.15 K	1318.83 ± 0.5	1.45826 ± 0.00037	1240 ± 2	60.2 ± 1.4
323.15 K	1314.52 ± 0.5	1.45671 ± 0.00037	1229 ± 2	48.3 ± 1.1
328.15 K	1310.23 ± 0.49	1.45514 ± 0.00037	1218 ± 2	39.3 ± 0.9
333.15 K	1305.85 ± 0.49	1.45357 ± 0.00037	1206 ± 2	32.4 ± 0.7
338.15 K	1301.66 ± 0.49	1.452 ± 0.00037	1195 ± 2	27.1 ± 0.6
343.15 K	1297.4 ± 0.48	1.45044 ± 0.00037	1184 ± 2	23 ± 0.5

CCCCCc1c(C)cc(C)c[n+]1CCCC.O=S(=O)([N-]S(=O)(=O)C(F)(F)F)C(F)(F)F
Details	mass density, [2] [kg/m3]	refractive index, [1]	speed of sound, [2] [m/s]	viscosity, [2] [mPa·s]
298.15 K	1288.23 ± 0.47	1.4604 ± 0.00037	1293 ± 2	253 ± 9
303.15 K	1283.93 ± 0.47	1.45878 ± 0.00037	1279 ± 2	186 ± 6
308.15 K	1279.63 ± 0.47	1.45714 ± 0.00037	1266 ± 2	138 ± 4
313.15 K	1275.33 ± 0.46	1.45549 ± 0.00037	1253 ± 2	105 ± 3
318.15 K	1271.04 ± 0.46	1.45386 ± 0.00037	1240 ± 2	80.8 ± 2
323.15 K	1266.77 ± 0.46	1.45226 ± 0.00037	1228 ± 2	63.7 ± 1.5
328.15 K	1262.51 ± 0.45	1.45065 ± 0.00037	1215 ± 2	51 ± 1.1
333.15 K	1258.26 ± 0.45	1.44902 ± 0.00037	1203 ± 2	41.5 ± 0.9
338.15 K	1254.01 ± 0.44	1.44744 ± 0.00037	1191 ± 2	34.2 ± 0.8
343.15 K	1249.77 ± 0.44	1.44588 ± 0.00037	1179 ± 2	28.6 ± 0.6

CCCCCc1c(C)cc(C)c[n+]1CC.O=S(=O)([N-]S(=O)(=O)C(F)(F)F)C(F)(F)F
Details	mass density, [2] [kg/m3]	refractive index, [1]	speed of sound, [2] [m/s]	viscosity, [2] [mPa·s]
298.15 K	1323.9 ± 0.51	1.46108 ± 0.00037	1309 ± 2	260 ± 9
303.15 K	1319.56 ± 0.5	1.45947 ± 0.00037	1296 ± 2	187 ± 6
308.15 K	1315.21 ± 0.5	1.45787 ± 0.00037	1283 ± 2	138 ± 4
313.15 K	1310.86 ± 0.49	1.45627 ± 0.00037	1270 ± 2	104 ± 3
318.15 K	1306.53 ± 0.49	1.45463 ± 0.00037	1258 ± 2	79.9 ± 1.9
323.15 K	1302.2 ± 0.49	1.45304 ± 0.00037	1245 ± 2	62.8 ± 1.4
328.15 K	1297.9 ± 0.48	1.45139 ± 0.00037	1233 ± 2	50.1 ± 1.1
333.15 K	1293.6 ± 0.48	1.44979 ± 0.00037	1221 ± 2	40.7 ± 0.9
338.15 K	1289.3 ± 0.48	1.44822 ± 0.00037	1209 ± 2	33.5 ± 0.7
343.15 K	1285.03 ± 0.47	1.44667 ± 0.00037	1198 ± 2	28 ± 0.6
